Measured values reported in patent publication US10479780B2, “Aminopyrazole derivatives” (Chugai Seiyaku Kabushiki Kaisha, priority 2015, dated 2019).
pIC50: −log10 of the molar value.

Experiments:
Type in all cases: biochemical
[1] = molecular target: T1, human Yes1 enzyme (Homo sapiens, UniProt P07947); test: Yes1 enzyme inhibitory activity (time-resolved fluorometry, biotinylated peptide phosphorylation); conditions: biotinylated peptide phosphorylation, read-out: YES_IC50
T1 construct: made in house
Method in brief: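 Inhibition was expressed against a compound-free control to give IC50, using TR-FRET read-out (Eu-cryptate anti-pTyr antibody, streptavidin-XL665).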

[2] = molecular target: T2, human Src enzyme (Homo sapiens, UniProt P12931); test: Src enzyme inhibitory activity (time-resolved fluorometry, biotinylated peptide phosphorylation); conditions: biotinylated peptide phosphorylation, read-out: SRC_IC50
T2 construct: purchased Carna Biosciences, Inc. 08-173
Protocol: 2. Src Enzyme Inhibitory Activity Src inhibitory activity was determined based on activity of inhibiting phosphorylation reaction of a biotinylated peptide (EGPWLEEEEEAYGWMDF) using a human Src enzyme (manufactured by Carna Biosciences, Inc., cat 08-173). The phosphorylated biotinylated peptide was detected by time-resolved fluorometry using an anti-phosphorylated tyrosine antibody conjugated to europium cryptate, and streptavidin conjugated to XL665, an allophycocyanin derivative. The 50% inhibitory concentration (IC50) was calculated from the inhibition rate relative to the control group without containing the test substance.

[3] = molecular target: T3, human Lck enzyme (Homo sapiens, UniProt P06239); test: Lck enzyme inhibitory activity (time-resolved fluorometry, biotinylated peptide phosphorylation); conditions: biotinylated peptide phosphorylation, read-out: LCK_IC50
T3 construct: purchased Carna Biosciences, Inc. 08-170
Method in brief: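 Readout pairs a europium cryptate-labelled anti-phosphotyrosine antibody with XL665-streptavidin, measured by time-resolved fluorescence. IC50 derived from percent inhibition against untreated controls.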

T1 sequence (P07947 whole entry): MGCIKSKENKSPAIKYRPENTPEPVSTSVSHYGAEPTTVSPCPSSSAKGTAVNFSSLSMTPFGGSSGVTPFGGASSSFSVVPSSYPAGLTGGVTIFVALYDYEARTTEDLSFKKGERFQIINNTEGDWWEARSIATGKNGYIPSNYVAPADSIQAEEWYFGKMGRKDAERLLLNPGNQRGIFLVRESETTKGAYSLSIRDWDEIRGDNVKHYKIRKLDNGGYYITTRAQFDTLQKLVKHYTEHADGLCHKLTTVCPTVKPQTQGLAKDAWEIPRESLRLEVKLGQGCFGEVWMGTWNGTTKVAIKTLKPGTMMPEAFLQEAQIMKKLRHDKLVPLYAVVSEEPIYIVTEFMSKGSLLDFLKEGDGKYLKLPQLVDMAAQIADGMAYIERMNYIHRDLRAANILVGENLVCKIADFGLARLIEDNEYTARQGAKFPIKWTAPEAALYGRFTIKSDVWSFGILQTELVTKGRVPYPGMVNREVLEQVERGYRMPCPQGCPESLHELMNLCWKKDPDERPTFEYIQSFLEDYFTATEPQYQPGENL
T2 sequence (P12931 whole entry): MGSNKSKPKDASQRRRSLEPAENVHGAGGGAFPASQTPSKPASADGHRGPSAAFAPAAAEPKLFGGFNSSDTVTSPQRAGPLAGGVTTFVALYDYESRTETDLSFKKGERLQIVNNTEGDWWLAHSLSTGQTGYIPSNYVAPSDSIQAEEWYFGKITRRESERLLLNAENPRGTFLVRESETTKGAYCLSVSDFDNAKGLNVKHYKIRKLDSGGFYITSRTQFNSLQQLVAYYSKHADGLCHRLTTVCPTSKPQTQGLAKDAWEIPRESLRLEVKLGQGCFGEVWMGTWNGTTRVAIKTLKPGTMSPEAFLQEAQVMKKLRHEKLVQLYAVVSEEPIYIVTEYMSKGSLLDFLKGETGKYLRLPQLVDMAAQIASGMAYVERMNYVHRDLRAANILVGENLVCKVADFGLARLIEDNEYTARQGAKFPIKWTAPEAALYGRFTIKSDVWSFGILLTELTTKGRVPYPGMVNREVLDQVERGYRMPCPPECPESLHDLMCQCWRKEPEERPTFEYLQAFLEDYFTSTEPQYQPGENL
T3 sequence (P06239 whole entry): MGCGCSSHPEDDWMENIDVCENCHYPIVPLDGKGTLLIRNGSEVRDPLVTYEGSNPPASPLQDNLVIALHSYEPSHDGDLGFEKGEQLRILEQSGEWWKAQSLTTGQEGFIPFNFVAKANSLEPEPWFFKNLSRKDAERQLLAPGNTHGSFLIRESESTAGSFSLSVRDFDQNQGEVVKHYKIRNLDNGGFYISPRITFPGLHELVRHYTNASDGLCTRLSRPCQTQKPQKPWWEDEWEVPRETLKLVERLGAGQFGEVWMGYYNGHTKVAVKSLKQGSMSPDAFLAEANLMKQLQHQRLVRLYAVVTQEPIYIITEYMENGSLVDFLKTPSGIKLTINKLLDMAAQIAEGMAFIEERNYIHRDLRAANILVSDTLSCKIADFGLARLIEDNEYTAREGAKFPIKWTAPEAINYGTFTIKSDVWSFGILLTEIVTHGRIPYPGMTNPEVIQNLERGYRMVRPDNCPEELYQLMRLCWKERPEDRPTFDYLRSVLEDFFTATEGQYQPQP

| pIC50 [1] | pIC50 [2] | pIC50 [3] | Compound |
| --- | --- | --- | --- |
| 8.77 | 7.08 | 7.33 | Cc1cc(Oc2ccccc2Cl)ncc1-n1ncc(C(=O)c2cc3cc(F)c(NS(=O)(=O)CCCF)cc3[nH]2)c1N [Example 4-2-023, N-[2-[5-amino-1-[6-(2-chlorophenoxy)-4-methylpyridin-3-yl]pyrazole-4-carbonyl]-5-fluoro-1H-indol-6-yl]-3-fluoropropane-1-sulfonamide] |
| 8.68 | 7.22 | 7.92 | Cc1cc(Oc2c(F)cccc2Cl)ncc1-n1ncc(C(=O)c2cc3cc(F)c(NS(=O)(=O)CCCF)cc3[nH]2)c1N [Example 4-2-024, N-[2-[5-amino-1-[6-(2-chloro-6-fluorophenoxy)-4-methylpyridin-3-yl]pyrazole-4-carbonyl]-5-fluoro-1H-indol-6-yl]-3-fluoropropane-1-sulfonamide] |
| 8.62 | 7.28 | 7.46 | Cc1ccccc1Oc1cc(C)c(-n2ncc(C(=O)c3cc4cc(F)c(NS(=O)(=O)CCCF)cc4[nH]3)c2N)cn1 [Example 4-2-025, N-[2-[5-amino-1-[4-methyl-6-(2-methylphenoxy)pyridin-3-yl]pyrazole-4-carbonyl]-5-fluoro-1H-indol-6-yl]-3-fluoropropane-1-sulfonamide] |
| 8.44 | 6.92 | 7.43 | Cc1cc(Oc2cccc(Cl)c2)ncc1-n1ncc(C(=O)c2cc3cc(F)c(NS(=O)(=O)CCCF)cc3[nH]2)c1N [Example 4-2-026, N-[2-[5-amino-1-[6-(3-chlorophenoxy)-4-methylpyridin-3-yl]pyrazole-4-carbonyl]-5-fluoro-1H-indol-6-yl]-3-fluoropropane-1-sulfonamide] |
| 8.00 | 7.02 | 7.52 | Cc1cc(Oc2ccc(F)cc2)ncc1-n1ncc(C(=O)c2cc3cc(F)c(NS(=O)(=O)CCCF)cc3[nH]2)c1N [Example 4-2-027, N-[2-[5-amino-1-[6-(4-fluorophenoxy)-4-methylpyridin-3-yl]pyrazole-4-carbonyl]-5-fluoro-1H-indol-6-yl]-3-fluoropropane-1-sulfonamide] |
| 7.82 | 6.47 | 6.92 | Cc1cc(Oc2cc(F)cc(F)c2)ncc1-n1ncc(C(=O)c2cc3cc(F)c(NS(=O)(=O)CCCF)cc3[nH]2)c1N [Example 4-2-028, N-[2-[5-amino-1-[6-(3,5-difluorophenoxy)-4-methylpyridin-3-yl]pyrazole-4-carbonyl]-5-fluoro-1H-indol-6-yl]-3-fluoropropane-1-sulfonamide] |
| 9.19 | 7.55 | 8.26 | Cc1cc(Oc2cccc(F)c2F)ccc1-n1ncc(C(=O)c2cc3cc(F)c(NS(C)(=O)=O)cc3[nH]2)c1N [Example 4-2-029, N-[2-[5-amino-1-[4-(2,3-difluorophenoxy)-2-methylphenyl]pyrazole-4-carbonyl]-5-fluoro-1H-indol-6-yl]methanesulfonamide] |
| 8.77 | 6.96 | 7.59 | Cc1cc(Oc2cc(F)ccc2F)ncc1-n1ncc(C(=O)c2cc3cc(F)c(NS(C)(=O)=O)cc3[nH]2)c1N [Example 4-2-030, N-[2-[5-amino-1-[6-(2,5-difluorophenoxy)-4-methylpyridin-3-yl]pyrazole-4-carbonyl]-5-fluoro-1H-indol-6-yl]methanesulfonamide] |
| 9.16 | 7.43 | 8.37 | Cc1cc(Oc2c(F)cccc2F)ncc1-n1ncc(C(=O)c2cc3cc(F)c(NS(C)(=O)=O)cc3[nH]2)c1N [Example 4-2-031, N-[2-[5-amino-1-[6-(2,6-difluorophenoxy)-4-methylpyridin-3-yl]pyrazole-4-carbonyl]-5-fluoro-1H-indol-6-yl]methanesulfonamide] |
| 8.46 | 7.04 | 7.57 | Cc1cc(Oc2cccc(F)c2F)ncc1-n1ncc(C(=O)c2cc3cc(F)c(NS(C)(=O)=O)cc3[nH]2)c1N [Example 4-2-032, N-[2-[5-amino-1-[6-(2,3-difluorophenoxy)-4-methylpyridin-3-yl]pyrazole-4-carbonyl]-5-fluoro-1H-indol-6-yl]methanesulfonamide] |
| 9.04 | 7.31 | 7.72 | Cc1cc(Oc2ccccc2Cl)ncc1-n1ncc(C(=O)c2cc3cc(F)c(NS(C)(=O)=O)cc3[nH]2)c1N [Example 4-2-033, N-[2-[5-amino-1-[6-(2-chlorophenoxy)-4-methylpyridin-3-yl]pyrazole-4-carbonyl]-5-fluoro-1H-indol-6-yl]methanesulfonamide] |
| 8.34 | 6.85 | 7.36 | Cc1cc(Oc2cc(F)ccc2Cl)ncc1-n1ncc(C(=O)c2cc3cc(F)c(NS(C)(=O)=O)cc3[nH]2)c1N [Example 4-2-034, N-[2-[5-amino-1-[6-(2-chloro-5-fluorophenoxy)-4-methylpyridin-3-yl]pyrazole-4-carbonyl]-5-fluoro-1H-indol-6-yl]methanesulfonamide] |
| 8.89 | 7.23 | 8.17 | Cc1cc(Oc2c(F)cccc2Cl)ncc1-n1ncc(C(=O)c2cc3cc(F)c(NS(C)(=O)=O)cc3[nH]2)c1N [Example 4-2-035, N-[2-[5-amino-1-[6-(2-chloro-6-fluorophenoxy)-4-methylpyridin-3-yl]pyrazole-4-carbonyl]-5-fluoro-1H-indol-6-yl]methanesulfonamide] |
| 8.82 | 7.22 | 7.68 | Cc1ccccc1Oc1cc(C)c(-n2ncc(C(=O)c3cc4cc(F)c(NS(C)(=O)=O)cc4[nH]3)c2N)cn1 [Example 4-2-036, N-[2-[5-amino-1-[4-methyl-6-(2-methylphenoxy)pyridin-3-yl]pyrazole-4-carbonyl]-5-fluoro-1H-indol-6-yl]methanesulfonamide] |
| 8.96 | 7.11 | 7.52 | Cc1cc(Oc2cccc(Cl)c2)ncc1-n1ncc(C(=O)c2cc3cc(F)c(NS(C)(=O)=O)cc3[nH]2)c1N [Example 4-2-037, N-[2-[5-amino-1-[6-(3-chlorophenoxy)-4-methylpyridin-3-yl]pyrazole-4-carbonyl]-5-fluoro-1H-indol-6-yl]methanesulfonamide] |
| 8.72 | 6.89 | 7.40 | Cc1cc(Oc2cccc(F)c2)ncc1-n1ncc(C(=O)c2cc3cc(F)c(NS(C)(=O)=O)cc3[nH]2)c1N [Example 4-2-038, N-[2-[5-amino-1-[6-(3-fluorophenoxy)-4-methylpyridin-3-yl]pyrazole-4-carbonyl]-5-fluoro-1H-indol-6-yl]methanesulfonamide] |
| 8.39 | 7.08 | 7.49 | Cc1cc(Oc2ccc(F)cc2)ncc1-n1ncc(C(=O)c2cc3cc(F)c(NS(C)(=O)=O)cc3[nH]2)c1N [Example 4-2-039, N-[2-[5-amino-1-[6-(4-fluorophenoxy)-4-methylpyridin-3-yl]pyrazole-4-carbonyl]-5-fluoro-1H-indol-6-yl]methanesulfonamide] |
| 8.66 | 7.38 | 7.62 | Cc1cc(Oc2ccccc2F)ccc1-n1ncc(C(=O)c2cc3cc(F)c(NS(=O)(=O)C4CC4)cc3[nH]2)c1N [Example 4-2-040, N-[2-[5-amino-1-[4-(2-fluorophenoxy)-2-methylphenyl]pyrazole-4-carbonyl]-5-fluoro-1H-indol-6-yl]cyclopropanesulfonamide] |
| 9.10 | 7.08 | 7.42 | Cc1cc(Oc2cccc(F)c2F)ccc1-n1ncc(C(=O)c2cc3cc(F)c(NS(=O)(=O)C4CC4)cc3[nH]2)c1N [Example 4-2-041, N-[2-[5-amino-1-[4-(2,3-difluorophenoxy)-2-methylphenyl]pyrazole-4-carbonyl]-5-fluoro-1H-indol-6-yl]cyclopropanesulfonamide] |
| 7.49 | 6.08 | 6.43 | Cc1cc(Oc2ccccc2F)cc(C)c1-n1ncc(C(=O)c2cc3cc(F)c(NS(=O)(=O)C4CC4)cc3[nH]2)c1N [Example 4-2-042, N-[2-[5-amino-1-[4-(2-fluorophenoxy)-2,6-dimethylphenyl]pyrazole-4-carbonyl]-5-fluoro-1H-indol-6-yl]cyclopropanesulfonamide] |
| 8.85 | 7.06 | 7.55 | Cc1cc(Oc2ccccc2F)ncc1-n1ncc(C(=O)c2cc3cc(F)c(NS(=O)(=O)C4CC4)cc3[nH]2)c1N [Example 4-2-043, N-[2-[5-amino-1-[6-(2-fluorophenoxy)-4-methylpyridin-3-yl]pyrazole-4-carbonyl]-5-fluoro-1H-indol-6-yl]cyclopropanesulfonamide] |
| 8.15 | 6.80 | 7.49 | Cc1cc(Oc2c(F)cccc2F)ncc1-n1ncc(C(=O)c2cc3cc(F)c(NS(=O)(=O)C4CC4)cc3[nH]2)c1N [Example 4-2-044, N-[2-[5-amino-1-[6-(2,6-difluorophenoxy)-4-methylpyridin-3-yl]pyrazole-4-carbonyl]-5-fluoro-1H-indol-6-yl]cyclopropanesulfonamide] |
| 8.31 | 6.64 | 7.05 | Cc1cc(Oc2cccc(F)c2F)ncc1-n1ncc(C(=O)c2cc3cc(F)c(NS(=O)(=O)C4CC4)cc3[nH]2)c1N [Example 4-2-045, N-[2-[5-amino-1-[6-(2,3-difluorophenoxy)-4-methylpyridin-3-yl]pyrazole-4-carbonyl]-5-fluoro-1H-indol-6-yl]cyclopropanesulfonamide] |
